According to ChEMBL document CHEMBL2203088, “Design, synthesis and molecular simulation studies of dihydrostilbene derivatives as potent tyrosinase inhibitors” (Bioorg Med Chem Lett, 2012):

biological target: T1, Tyrosinase (Agaricus bisporus, UniProt O42713); assay: Inhibition of mushroom tyrosinase using L-DOPA as substrate after 10 mins
T1 sequence (O42713 whole entry): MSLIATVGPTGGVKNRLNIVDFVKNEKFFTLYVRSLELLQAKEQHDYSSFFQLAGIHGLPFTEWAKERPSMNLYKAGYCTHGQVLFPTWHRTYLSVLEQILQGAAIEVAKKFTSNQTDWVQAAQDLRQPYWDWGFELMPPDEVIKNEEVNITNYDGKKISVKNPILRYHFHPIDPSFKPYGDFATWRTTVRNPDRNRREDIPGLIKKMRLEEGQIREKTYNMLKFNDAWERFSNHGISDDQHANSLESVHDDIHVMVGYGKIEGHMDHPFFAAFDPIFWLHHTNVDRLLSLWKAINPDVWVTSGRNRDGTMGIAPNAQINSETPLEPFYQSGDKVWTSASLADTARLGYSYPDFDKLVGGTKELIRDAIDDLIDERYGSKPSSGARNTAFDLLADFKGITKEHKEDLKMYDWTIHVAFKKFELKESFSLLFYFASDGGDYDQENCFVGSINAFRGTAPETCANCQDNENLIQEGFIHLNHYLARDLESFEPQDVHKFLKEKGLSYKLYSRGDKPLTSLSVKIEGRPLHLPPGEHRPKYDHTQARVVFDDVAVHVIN

SMILES | IC50 [µM]
Oc1ccc(CCc2ccccc2)c(O)c1 | 30.6
Oc1ccc(CCc2ccccc2Cl)c(O)c1 | 33.8
Oc1ccc(CCc2ccc(O)cc2O)cc1 | 8.44
COc1ccc(CCc2ccc(O)cc2O)cc1 | 31.6
Oc1ccc(CCc2ccc(F)cc2)c(O)c1 | 49.6
